From PubChem BioAssay (NCI)
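Where inhibition never reached the appropriate level, the endpoint shown equals the highest concentration tested. Otherwise, values were interpolated linearly from a five-concentration, 48-hour dose response in 96-well plates. Here, GI50 denotes the concentration required for 50% inhibition of growth. TGI marks complete inhibition of growth.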

Legend:
Test in all cases: DTP human tumour cell line panel, 48 h
MALME-3M melanoma = test system: MALME-3M melanoma
M14 melanoma = test system: M14 melanoma
SNB-19 CNS = test system: SNB-19 CNS
NCI/ADR-RES ovarian = test system: NCI/ADR-RES ovarian
SK-MEL-5 melanoma = test system: SK-MEL-5 melanoma
RXF 393 renal = test system: RXF 393 renal
PC-3 prostate = test system: PC-3 prostate
DU-145 prostate = test system: DU-145 prostate
MCF7 breast = test system: MCF7 breast
HS 578T breast = test system: HS 578T breast

SMILES | TGI (MALME-3M melanoma) [µM] | TGI (M14 melanoma) [µM] | TGI (SNB-19 CNS) [µM] | TGI (NCI/ADR-RES ovarian) [µM] | TGI (SK-MEL-5 melanoma) [µM] | TGI (RXF 393 renal) [µM] | TGI (PC-3 prostate) [µM] | TGI (DU-145 prostate) [µM] | TGI (MCF7 breast) [µM] | TGI (HS 578T breast) [µM] | GI50 (MALME-3M melanoma) [µM] | GI50 (M14 melanoma) [µM] | GI50 (SNB-19 CNS) [µM] | GI50 (RXF 393 renal) [µM]
C=C(C)C1(Sc2ccc(OC)cc2)CC1 | 66.9 | > 100 | > 100 | > 100 | 31.6 | 36.3 | > 100 | > 100 | > 100 |  |  |  |  | 
COc1cc2nc(-c3cccs3)nc(Nc3ccccc3C(=O)NN)c2cc1OC | > 100 | > 100 | > 100 | > 100 | > 100 |  | > 100 | > 100 | > 100 | > 100 |  |  |  | 
O=S(=O)(O)c1cc(S(=O)(=O)O)c2cc(N=Nc3ccc(N=Nc4ccc(/C=C/c5ccc(N=[N+]([O-])c6ccc(/C=C/c7ccc(N=Nc8ccc(N=Nc9ccc%10cc(S(=O)(=O)O)cc(S(=O)(=O)O)c%10c9)cc8)cc7S(=O)(=O)O)c(S(=O)(=O)O)c6)cc5S(=O)(=O)O)c(S(=O)(=O)O)c4)cc3)ccc2c1 | > 100 |  | > 100 | > 100 | > 100 | > 78.7 |  |  | > 100 |  |  |  |  | 
CSc1ccc(N2C(=O)C3c4[nH]c5ccccc5c4C4CCC(C(C)(C)C)CC4C3C2=O)cc1 (stereo not given) | 42.9 | > 100 | 45.2 |  | 58.5 | 47.1 |  |  |  |  |  |  |  | 
OCc1ccc2c(c1)CC1(Cc3ccccc3C1)C2 | 29.4 |  |  | 59.5 | 23.6 | 36.2 | 33.5 | > 100 |  | 32.9 |  |  |  | 
CCOC(=O)c1ccc2nc3n(c2c1)C(c1c(F)cccc1F)SC3 (stereo not given) |  | > 100 | > 100 | > 100 | > 100 | > 100 | > 100 | > 100 | > 100 | > 100 |  |  |  | 
COC1C(O)C(C)OC(O[C@H]2CC[C@@]3(C)C(CC[C@@H]4[C@@H]3CC[C@]3(C)[C@@H](C(C)OC5OC(CO)C(O)C(O)C5O)CC[C@]43O)C2)C1O (stereo not given in full) |  | > 25 | > 25 | > 25 | > 25 |  | > 25 |  | > 25 | > 25 |  |  |  | 
Clc1ccc(C2SCc3nc4ccccc4n32)cc1 (stereo not given) | 36.7 | 68.1 | 77 |  | 23.3 |  |  |  |  |  |  |  |  | 
COCC(C#N)NC1CC(OC2CC(O)(C(=O)CO)Cc3c(O)c4c(c(O)c32)C(=O)c2c(OC)cccc2C4=O)OC(C)C1O (stereo not given) | 0.18 | 0.774 | 2.61 | 16 | 0.154 | 0.497 | 1.2 |  | 0.836 | 1.32 |  |  |  | 
CCSC12OC3(CCCCCN3C1=O)C1C(=O)N(c3ccccc3)C(=O)C12 (stereo not given) | > 100 | > 100 | > 100 | > 100 | > 100 | > 100 | > 100 | > 100 |  | > 100 |  |  |  | 
O/N=C1\C/C(=N\O)c2c(Br)sc(Br)c21 | > 100 | > 100 |  | > 100 | > 100 |  |  | > 100 | > 100 | 30.9 |  |  |  | 
CC(=O)/C=C(/C)[O-].CC(=O)/C=C(/C)[O-].CC(=O)[CH-]C(C)=O.CC(=O)[CH-]C(C)=O.[Zr+4] | 32.5 | > 100 | > 100 |  |  | > 100 |  |  |  |  | 12.7 | > 100 | > 100 | > 100
CCCN=C1NC(C)=CSC(Nc2ccccc2)=C1C#N | > 100 | > 100 | > 100 | > 100 | > 100 | > 100 | > 100 | > 100 | > 100 |  |  |  |  | 
NC1(c2cc3ccccc3s2)CCCCCC1 |  | 37.2 | 34.8 | 33.7 | 28.8 | 25.4 | 24 | 30.9 | 29.7 |  |  |  |  | 
COc1cc(C(c2ccccc2)N2C(=O)CC[C@H]2C(=O)O)cc(OC)c1OC (stereo not given in full) | > 100 | > 100 | > 100 | > 100 | > 100 |  | > 100 | > 100 | > 100 | > 100 |  |  |  | 
COC(=O)N[C@@H]1C[C@H]2CC[C@]1(O[Si](C(C)C)(C(C)C)C(C)C)C(=O)C2 |  | 62.8 | 39.5 | 35.4 | > 100 |  | 33.9 | > 100 | > 100 | 31.5 |  |  |  | 
O=C1CCCC1CC(CN1CCOCC1)Sc1nnnn1-c1ccccc1 (stereo not given) | > 100 | > 100 | > 100 | > 100 | > 100 | > 100 | > 100 | > 100 | > 100 |  |  |  |  | 
Cc1cnc2c(c1)C(=O)N(c1ccc(Oc3ccccc3)cc1)S2(=O)=O | > 100 | > 100 | > 100 | > 100 | > 100 |  | > 100 | > 100 | > 100 | > 100 |  |  |  | 
Cc1cc(C)[n+]2c(c1)C=CC2 | 8.57 | > 100 | > 100 |  | 43.1 | 25.1 |  |  |  |  |  |  |  | 
CC(=O)NC1C(OCc2ccccc2)OC(CO)C(O)C1OC(C)C(=O)NC(C(=O)NC(CCC(=O)NCCCNc1ccc([N+](=O)[O-])c2[nH]c3ccccc3c(=O)c12)C(N)=O)C(C)C (stereo not given) |  | > 100 | > 100 | > 100 | > 100 |  | > 100 | > 100 | > 100 | > 100 |  |  |  | 
O=S(=O)(O)c1ccc(O)c(N=Nc2c(O)ccc3ccccc23)c1 |  | > 100 | > 100 | > 100 | > 100 | > 100 | > 100 | > 100 |  | > 100 |  |  |  | 
CC(C)(C)OC(=O)N1C(=O)C2CCCC21 (stereo not given) |  | > 100 | > 100 | > 100 | > 100 | > 100 | > 100 | > 100 |  | > 100 |  |  |  | 
COP(=O)(CP(=O)(OC)OCCC(C)CCC=C(C)C)OC (stereo not given) | > 100 | > 100 | > 100 | > 100 | > 100 | > 100 | > 100 |  | > 100 |  |  |  |  | 
CCCCCCc1ccc(CCCCCCCC(=O)O)o1 |  | > 100 | > 100 | > 100 | > 100 |  | > 100 | > 100 | > 100 |  |  |  |  | 
